# Data as given in patent publication US11103698B2, “Using alternating electric fields to increase cell membrane permeability” (The Board of Trustees of the Leland Stanford Junior …, priority 2018, dated 2021).
# Assays:
# [1] = target: T1, purified firefly luciferase (Photinus pyralis, UniProt P08659); assay: Activity of purified firefly luciferase exposed to TTFields; type: biochemical; details: 200 kHz TTFields, 60 minutes after initiation
# T1 construct: purchased Sigma Aldrich Inc (St. Louis, Mo.) SRE0045-2 MG
# [2] = tested on: KR158B murine astrocytoma cell line; assay: Bioluminescence imaging of Renilla luciferase-expressing astrocytoma cells under TTFields (coelenterazine substrate); type: cell-based; details: TTFields exposure vs no TTFields
# Text: Renilla luciferase activity is not dependent upon ATP and magnesium (as opposed to firefly luciferase). Thus, it is believed that the induction of bioluminescence by TTFields was not due to alterations in endogenous pools of ATP.
# GBM39 cells (GBM39/Luc) = assay: Sensitivity to drug and synergy with TTFields; type: cell-based, human; details: for synergy of combination with TTFields: GBM39/Luc; for sensitivity of cells to various concentrations of drug: TTFields for 3 days vs no TTFields
# U87-MG cells [3] = assay: 7-AAD accumulation by flow cytometry under alternating electric fields; type: cell-based, human; details: 300 kHz, 1.62 V/cm RMS, 24 h; 7-AAD introduced 15 minutes prior to cessation of the field (other timings after cessation: no significant increase)
# Protocol: FIG. 7D depicts the results of an experiment to test how quickly the permeability drops back down after cessation of the alternating electric fields. More specifically, 7-Aminoactinomycin D (7-AAD) is a fluorescent chemical compound with a strong affinity for DNA. […] 7-AAD was introduced into samples at five different times: 15 minutes prior to the cessation of the alternating electric field; immediately after cessation of the alternating electric field; and 15, 30, and 60 minutes after cessation of the alternating electric field. In each case, the cells were incubated with 7-AAD for 30 minutes after introduction of the 7-AAD, followed by flow cytometry analysis of the percentage of cells with increased accumulation of the fluorescent 7-AAD for each of the different timings.
# After this 15 minute period, alternating electric field application was terminated and the cells were incubated at room temperature for an additional 15 minutes, followed by flow cytometry analysis of the percentage of cells with increased accumulation of the fluorescent 7-AAD for each of the different frequencies.
# [4] = tested on: MDA-MB-435 human melanoma cell line cells; assay: as above; type: cell-based; details: 150 kHz, 1.62 V/cm, 24 h
# Protocol: After this 15 minute period, alternating electric field application was terminated and the cells were incubated at room temperature for an additional 15 minutes.
# After this 24 hour period, the alternating electric fields were turned off for 15 minutes, after which the 7-AAD was added. After waiting an additional 15 minutes, the percentage of cells with increased accumulation of the fluorescent 7-AAD was determined using flow cytometry.
# U87-MG/GFP-Luc cells = assay: Sensitivity to drug and synergy with TTFields; type: cell-based, human
# U87-MG/eGFP-fLuc cells [5] = tested on: U87-MG/eGFP-fLuc cells
# Protocol: U87-MG/eGFP-fLuc cells were seeded on Thermanox glass coverslips, allowed to settle and grow, and then subjected to either TTFields or no TTFields.
# To assess the reversibility of the effect of TTFields on cancer cells, U87-MG/eGFP-fLuc cells were subjected to three conditions: (1) No TTFields exposure, standard cell culture conditions (37° C., 95% 02, 5% CO2), (2) TTFields exposure for 24 h and (3) TTFields exposure for 24 h followed by no TTFields exposure for 24 h. The readouts of BLI, PpIX fluorescence (5-ALA product) and Dextran-FITC (4 kDa) fluorescence were acquired. All experimental conditions were done in triplicate.
# Briefly, cells in culture were trypsinized via standard protocols and 10,000-50,000 single cells were suspended in 200 or 75 μL of DMEM/10% FBS/1×antibiotic-antimycotic and then were seeded onto the center of a 22 mm or 12 mm diameter glass Thermanox™ coverslips respectively (ThermoFisher Scientific, Waltham, Mass., USA). The cells were incubated overnight in a humidified 95% air/5% CO2 incubator set at 37° C. Once the cells became attached to the coverslip, 2 mL or 1 mL of DMEM/10% FBS/lx antibiotic-antimycotic was added per well of 6-well or 12-well plates, respectively. […]
# U87-MG cells [6] = assay: 5-ALA uptake (PpIX fluorescence) under TTFields, single culture; type: cell-based, human
# Protocol: Experiments were performed to determine the effects of TTFields on uptake of 5-ALA (as measured by PpIX accumulation and its resultant fluorescence) in glioblastoma cells. Because it is difficult to distinguish the margin between tumor and normal cells using the present 5-ALA bioassay, the measurement of PpIX fluorescence was used to address this issue. Investigations were run to determine whether permeation of 5-ALA through the cellular membrane and into the glioblastoma cells could be increased with TTFields exposure. U87-MG cells were exposed or unexposed to TTFields, each for durations of 6-24 h.
# All monovariant statistical comparisons between no TTFields vs. TTFields samples done by Student's t-test for n=3 experiments per time point.
# [7] = tested on: U87-MG GBM on PCS-201 fibroblast co-cultures; assay: 5-ALA uptake (PpIX fluorescence) in glioblastoma-fibroblast co-culture under TTFields; type: cell-based, human
# [8] = tested on: MCF-7 human breast adenocarcinoma cells, wild type; assay: Intracellular accumulation of mitoxantrone under alternating electric fields; type: cell-based; details: 150 kHz, 1.62 V/cm, 23 h, then mitoxantrone 2 μM for 1 h with field; vs no field
# Protocol: (§1) The intracellular accumulation of mitoxantrone was then measured.
# [9] = tested on: MCF-7 cells, mitoxantrone resistant; assay: as above; type: cell-based, human; details: 150 kHz, 1.62 V/cm, 23 h, then mitoxantrone 2 μM for 1 h with field; vs no field
# Protocol: as §1
# [10] = tested on: MDA-MB-435 cells, wild type; assay: Intracellular accumulation of doxorubicin under alternating electric fields; type: cell-based, human; details: 150 kHz, 1.62 V/cm, 23 h, then doxorubicin 10 μM for 1 h with field; vs no field
# [11] = tested on: MDA-MB-435 cells, doxorubicin resistant; assay: as above; type: cell-based, human; details: 150 kHz, 1.62 V/cm, 23 h, then doxorubicin 10 μM for 1 h with field; vs no field
# MES-SA cells = assay: Intracellular accumulation of doxorubicin under 150 kHz alternating electric fields; type: cell-based; details: 1.62 V/cm RMS, 24 h, doxorubicin 10 μM for last hour, vs untreated with field
# MDA-MB-235 cells = assay: Sensitivity to drug and synergy with TTFields; type: cell-based
# human glioblastoma cells = assay: Growth inhibition by TTFields in conjunction with compound; type: cell-based
# Text: In this figure, 5-ALA=5-aminolevulinic acid; Ethidium D=ethidium bromide; and FITC=fluorescein isothiocyanate.
# U87-MG/eGFP-fLuc cells [12] = assay: Annexin-V-APC binding (apoptosis positive control), fluorescence microscopy; type: cell-based, human; details: 21 μM, positive control for apoptosis, TTFields-unexposed
# Protocol: To test if the imposition of TTFields affects cell membrane properties, and thus membrane permeability, the effect of TTFields on the behavior of fluorescently tagged reagents that bind to the cellular membrane was determined. Initially, the impact of TTFields on the binding of Annexin-V-APC to the membrane of U87-MG/eGFP-fLuc cells was measured. Annexin-V-APC binding is a signature of early apoptosis which is characterized by ruffling of the membrane.
# [13] = TTFields for 3 days vs no TTFields
# T1 sequence (P08659 whole entry): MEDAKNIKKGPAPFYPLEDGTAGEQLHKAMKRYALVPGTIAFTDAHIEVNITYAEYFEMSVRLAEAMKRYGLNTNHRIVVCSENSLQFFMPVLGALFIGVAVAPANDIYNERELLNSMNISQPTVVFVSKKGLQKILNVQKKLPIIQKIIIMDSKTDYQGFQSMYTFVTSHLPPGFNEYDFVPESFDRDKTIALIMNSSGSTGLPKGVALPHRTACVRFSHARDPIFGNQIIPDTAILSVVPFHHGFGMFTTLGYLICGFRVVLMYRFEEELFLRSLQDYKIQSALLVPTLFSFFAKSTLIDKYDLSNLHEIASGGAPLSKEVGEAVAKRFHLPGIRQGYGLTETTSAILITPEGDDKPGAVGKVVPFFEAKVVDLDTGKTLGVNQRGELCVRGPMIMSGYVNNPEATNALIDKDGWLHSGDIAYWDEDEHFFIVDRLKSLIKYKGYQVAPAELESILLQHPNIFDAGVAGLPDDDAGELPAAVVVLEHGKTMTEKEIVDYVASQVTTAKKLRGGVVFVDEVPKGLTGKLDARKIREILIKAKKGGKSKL
compound,measurement,setting,value
firefly luciferase: purified firefly luciferase enzyme (Sigma Aldrich SRE0045-2 MG),loss in enzymatic activity,[1],> 1000 fold
Oc1ccc(Cc2nc3c(Cc4ccccc4)nc(-c4ccc(O)cc4)cn3c2O)cc1 [coelenterazine],permeation of the luciferase substrate through the plasma membrane (bioluminescence),[2],increased permeation
CCc1c2c(nc3ccc(OC(=O)N4CCC(N5CCCCC5)CC4)cc13)-c1cc3c(c(=O)n1C2)COC(=O)[C@]3(O)CC [Irinotecan],synergy of combination with TTFields,GBM39 cells (GBM39/Luc),synergy was found
same,sensitivity of cells to various concentrations of drug,GBM39 cells (GBM39/Luc); GBM39/Luc cells,improves the sensitivity
"Cc1c2oc3c(C)c(N)cc(C(=O)N[C@@H]4C(=O)N[C@H](C(C)C)C(=O)N5CCC[C@H]5C(=O)N(C)CC(=O)N(C)[C@@H](C(C)C)C(=O)O[C@@H]4C)c3nc-2c(C(=O)N[C@@H]2C(=O)N[C@H](C(C)C)C(=O)N3CCC[C@H]3C(=O)N(C)CC(=O)N(C)[C@@H](C(C)C)C(=O)O[C@@H]2C)c(N)c1=O [7-AAD, 7-Aminoactinomycin D]",accumulation of 7-AAD (percentage of cells with increased accumulation),U87-MG cells [3],significant increase
same,percentage of cells with increased accumulation of 7-AAD,[4]; 7-AAD added for last 15 min while field continued,~66%
same,percentage of cells with increased accumulation of 7-AAD,[4]; fields turned off for 15 minutes before 7-AAD was added,~20%
O=NN(CCCl)C(=O)NC1CCCCC1 [Lomustine],sensitivity of cells to various concentrations of drug,U87-MG/GFP-Luc cells; [13],improves the sensitivity
same,sensitivity of cells to various concentrations of drug,GBM39 cells (GBM39/Luc); GBM39 cells,improves the sensitivity
same,sensitivity of cells to various concentrations of drug,pcGBM2/GFP-Luc cells; [13],improves the sensitivity
O=C(O)[C@H]1CSC(c2nc3ccc(O)cc3s2)=N1 [D-luciferin],permeation of the luciferase substrate through the plasma membrane (bioluminescence),U87-MG/eGFP-fLuc cells [5]; TTFields exposure vs no TTFields,increased permeation
same,"uptake (BLI flux), reversibility","U87-MG/eGFP-fLuc cells [5]; no TTFields vs TTFields 24 h vs TTFields 24 h followed by no TTFields 24 h, FIG. 7A",reversibly increase uptake
"NCC(=O)CCC(=O)O [5-ALA, 5-aminolevulinic acid]",uptake of 5-ALA (PpIX fluorescence),"U87-MG cells [6]; 6 h TTFields vs no TTFields, p=0.047",significantly increased uptake
same,uptake of 5-ALA (PpIX fluorescence),"U87-MG cells [6]; 24 h TTFields vs no TTFields, p=0.011",increase was maintained
same,"uptake (PpIX fluorescence), reversibility","U87-MG cells [6]; no TTFields vs TTFields 24 h vs TTFields 24 h followed by no TTFields 24 h, FIG. 7B",reversibly increase uptake
same,ratio of PpIX fluorescence intensity in U87-MG cells over surrounding PCS-201 fibroblast cells,"[7]; 24 h TTFields vs no TTFields, p=0.043",significantly increased
same,rate of PpIX fluorescence intensity increase,"[7]; TTFields-exposed vs unexposed co-cultures, 2, 6, 24 h, p<0.001",significantly augmented
O=C1c2c(O)ccc(O)c2C(=O)c2c(NCCNCCO)ccc(NCCNCCO)c21 [mitoxantrone],intracellular accumulation of mitoxantrone,[8],increased
same,intracellular accumulation of mitoxantrone,[9],increased
COc1cccc2c1C(=O)c1c(O)c3c(c(O)c1C2=O)C[C@@](O)(C(=O)CO)C[C@@H]3O[C@H]1C[C@H](N)[C@H](O)[C@H](C)O1 [doxorubicin],intracellular accumulation of doxorubicin,[10],increased
same,intracellular accumulation of doxorubicin,[11],increased
same,increase in intracellular accumulation of doxorubicin,MES-SA cells,more than 2 ×
same,synergy of combination with TTFields,MDA-MB-235 cells,Evidence of synergy
same,sensitivity of cells to various concentrations of drug,MDA-MB-235 cells; [13],improves the sensitivity
CC1=C(CO)C(=O)O[C@@H]([C@@H](C)[C@H]2CC[C@H]3[C@@H]4C[C@H]5O[C@]56[C@@H](O)C=CC(=O)[C@]6(C)[C@H]4CC[C@]23C)C1 [Withaferin A],synergy of combination with TTFields,U87-MG/GFP-Luc cells,synergy was found
same,synergy of combination with TTFields,GBM39 cells (GBM39/Luc),synergy was found
same,growth inhibition in conjunction with TTFields,human glioblastoma cells,synergistically inhibited
same,Annexin-V-APC binding to cells (early apoptosis),U87-MG/eGFP-fLuc cells [12],could be visualized
same,synergy of combination with TTFields,pcGBM2/GFP-Luc cells,synergy was found
